Experimental findings from US20250262226A1, “COMBINATIONS OF VITAMIN D3, NIACINAMIDE AND LIPOIC ACID FOR USE IN THE MAINTENANCE OF HEALTHY BLOOD GLUCOSE LEVELS” (priority 2022, published 2025) are described below.

The experiment relates to L6 muscle cells. The experiment can be described thus: Insulin-stimulated glucose uptake (2-NBDG) in L6 muscle cells. Format: cell-based. The following applies: for glucose uptake relative to control cells: insulin stimulated, FIG. 5, V 500 IU, N 15 mg/ml, LA 0.5 mM; for increase in glucose uptake after insulin pulse over control cells: 100 nM insulin, FIG. 4. How it is done: The effect of each of vitamin D3, niacinamide and lipoic acid separately, and the fixed dose combination of vitamin D3, niacinamide and lipoic acid composition provided herein, were evaluated for the ability of each to have an effect on glucose uptake in an in vitro model. A goal was to improve insulin's ability to increase the uptake of glucose by L6 muscle cells.
Vitamin D3 was utilized to increase GLUT4 levels since this vitamin has been shown before to increase GLUT4 levels in muscle, and niacinamide was used to increase cellular NAD levels (El-Fakhri et al., Horm Res Paediact 81:363-378 (2014); Manna et al., J Biol Chem 287 (50): 42324-42332 (2012); Garten, Endocrinologist, Issue 135 (2020); and Fan et al., J Diabetes Investig. 11 (6): 1403-1419 (2020)). Glucose uptake studies using L6 cells were performed. L6 cells (ATCC CLR-1458; Rockville, MD) were maintained in Dulbecco's modified Eagle's medium (DMEM) supplemented with 10% Fetal Bovine Serum (FBS) and 100 μg/mL penicillin and streptomycin, at 37° C. in an atmosphere of 5% CO2. 2-(N-[7-nitrobenz-2-oxa-1, 3-diazol-4-yl]amino)-2-deoxyglucose (2-NBDG) (Molecular Probes-Invitrogen, CA, USA) was used to assess glucose uptake in the L6 cells. The cells were kept in glucose free medium for half an hour before insulin stimulation. The cells were then stimulated with 100 nM insulin for 10 and 20 min and incubated with 10 μM of 2-NBDG for 15 min. The reaction was stopped by washing with cold PBS three times and the cells were lysed using 0.1% Triton X. The lysate was then used to read florescence at […]. The data is reported in FIG. 4 as percent of control cells (no treatment, incubation with media).
Experiment conducted n=5. Student's t-tests were performed to compare between the present glucose uptake shown by control, vitamin D, niacinamide, and their combination at different time points.
Because the TCA cycle and glucose metabolism in the mitochondria generate oxidative stress, lipoic acid, an antioxidant (Golbidi et al., Front Pharmacol, Vol. 2, Article 69 (2011), 15 pages) which is known to enter the mitochondria, was tested to determine if it could further enhance glucose uptake. The following combinations were tested for improvements in muscle cell glucose uptake stimulated by insulin: Vitamin D3 plus Niacinamide plus or minus Lipoic acid alone.

In the case of `O=C(O)CCCCC1CCSS1` (racemic) [Lipoic acid, DL-alpha-lipoic acid], the “glucose uptake relative to control cells” value is recorded as “did not increase glucose uptake”. `NC(=O)c1cccnc1` [niacinamide]: the “increase in glucose uptake after insulin pulse over control cells” value is, setting by setting: (10 minutes) “about 3 fold”; (20 minutes) “only little”. For `C=C1CC[C@H](O)C/C1=C/C=C1\CCC[C@]2(C)[C@@H]([C@H](C)CCCC(C)C)CC[C@@H]12` [vitamin D3, cholecalciferol], in that order: “about 6 fold” and “less so”. Consider Vitamin E, for which the “glucose uptake relative to control cells” value was “had no effect”.
